This note sets out measurements from patent publication US9718781B2, “Methods and compounds for treating proliferative disorders and viral infections” (University College Dublin, National University of Ireland, …, priority 2012, dated 2017).

Assay [1] concerns the target T1, TPα (Homo sapiens, UniProt P21731).
T1 construct: expressed in transfected cells
T1 sequence (P21731 1-343): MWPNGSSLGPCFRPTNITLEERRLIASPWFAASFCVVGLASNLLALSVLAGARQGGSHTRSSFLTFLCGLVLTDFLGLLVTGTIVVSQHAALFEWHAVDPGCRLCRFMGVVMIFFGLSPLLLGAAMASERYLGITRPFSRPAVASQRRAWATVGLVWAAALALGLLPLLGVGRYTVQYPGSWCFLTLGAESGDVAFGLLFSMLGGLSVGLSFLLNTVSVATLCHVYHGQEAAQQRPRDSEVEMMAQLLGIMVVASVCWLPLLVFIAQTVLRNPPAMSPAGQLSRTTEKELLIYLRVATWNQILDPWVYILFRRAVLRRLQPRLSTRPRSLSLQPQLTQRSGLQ
Description: U46619-induced [Ca2+]i mobilization in HEK.TPα cells. The conditions noted are these: 1 μM U46619, % of agonist-induced response in vehicle-treated cells; for remaining activity at 1 µM: antagonist 1 μM, read-out: Percentage of Control, TPα, 1 μM; for remaining activity at 10 µM: antagonist 10 μM, read-out: Percentage of Control, TPα, 10 μM. Type of assay: cell-based. From the text: (§1) An appropriate functional test for the evaluation of the agonistic and/or antagonistic potency of the compounds of the invention is the determination of calcium flux. Both TPα and TPβ are coupled to the G-protein Gαq. Therefore, stimulation of these receptors ultimately leads to a release of intracellular calcium ([Ca^2+]i) from intracellular stores. Consequently, the determination of [Ca^2+]i flux represents an appropriate functional test for the evaluation of the agonistic/antagonistic potency of compounds of the invention. Calcium can be measured using a molecule characterized by the covalent combination of a Ca^2+ chelating group and a fluorophore group. The Ca^2+ binding properties of these indicators are formed by the presence of a tetracarboxylic acid core as found for example in EGTA (Ethylene Glycol bis(2-aminoethyl)Tetraacetic Acid). Binding of Ca^2+ produces a wavelength shift in either the excitation or emission fluorescence spectra or a change in the emission intensity. Whereas the Ca^2+ binding to EGTA is pH dependent, recent dyes are designed from an EGTA derivative, BAPTA (1,2-Bis(2-Aminophenoxy)ethane-N,N,N′,N′-Tetraacetic Acid). Loading of these dyes inside cells commonly uses esterified forms (acetoxymethyl ester), which are able to cross the cell membranes and are subsequently hydrolyzed by esterases inside the cell.
(§2) Estimation of [Ca^2+]i flux is calculated from the fluorescence signal (F). For calibration, the maximal fluorescence (Fmax, Ca^2+-saturated form of the dye) as well as minimal fluorescence (Fmin, Ca^2+-free form of the dye) must be determined. These parameters are determined usually in situ after the experiment, for example by subsequent addition to the mixture of a cell-disrupting agent that releases all Ca^2+ such as Triton X100 and a potent Ca^2+-chelating agent such as EGTA. After subtraction of background fluorescence, [Ca^2+]; flux can be calculated for non-ratiometric indicators.
(§3) Intracellular [Ca^2+]; fluxes were measured using a fluorescence plate reader following a modified protocol of Kassack et al., ‘Quantitative comparison of functional screening by measuring intracellular Ca^2+ with radioligand binding at recombinant human dopamine receptors’, AAPS Pharmsci, 2002, 4(4); 102-111, in cell lines (e.g. HEK293 or other cell type) endogenously-expressing or over-expressing either TPα, TPβ or any other receptor or protein to be screened.
(§4) By way of example, HEK 293 cells which have been grown for 3-4 days in normal growth media (minimum essential media containing 10% FBS and 2 mmol/1 L-glutamine), under normal growth conditions (37° C., in humidified 5% CO2 atmosphere) are washed and harvested in KREBs-HEPES buffer (118 mM NaCl, 4.7 mM KCl, 1.2 mM MgSO4, 1.2 mM KH2PO4, 4.2 mM NaHCO3, 11.7 mM D-glucose, 1.3 mM CaCl2, 10 mM HEPES, pH 7.4). Cells are then incubated with 3 μM Fluo-4 in KREBs-HEPES buffer containing 1% Pluoronic F-127, for 1 hr at 25° C. with agitation. Then, cells are washed in KREBs-HEPES buffer containing 0.5% BSA and re-suspended at a final concentration of 3×10^5 cells/ml. Approx. 5.4×10^4 cells per well are plated in a 96-well plate and pre-incubated with test compounds for 10 m prior to measuring the fluorescence intensity at 520 nm for 25 seconds at 1 s intervals to monitor baseline using the Fluoroskan Ascent. Agonist (e.g., 1 μM U46619) is injected into separate wells by the automatic pipettor and fluorescence intensity is monitored at 520 nm for 75 seconds at 1 s intervals. Thereafter, Triton X100 and EGTA are added sequentially where Fmax refers to maximal fluorescence intensity measured after permeabilization of the cells with 2% Triton X100 and Fmin refers to fluorescence intensity measured after addition of 1 mM EGTA.
(§5) The dye Fluo-4 has its excitation peak at 480 nm, in the visible spectra, which spare cells to be damaged by UV (340-360 nm) stimulation and reduces auto-fluorescence of cells. […]

For assay [2], the target named is T2, TPβ (Homo sapiens, UniProt P21731).
T2 construct: expressed in transfected cells
In words: U46619-induced [Ca2+]i mobilization in HEK.TPβ cells. Type of assay: cell-based. The settings on record: 1 μM U46619; for remaining activity at 1 µM / remaining activity at 10 µM: % of agonist-induced response in vehicle-treated cells; for remaining activity at 1 µM: read-out: Percentage of Control, TPβ, 1 μM; for remaining activity at 10 µM: antagonist 10 μM, read-out: Percentage of Control, TPβ, 10 μM.
From the text: as §1, §2, §3, §4, §5

T2 sequence (P21731 1-407 isoform P21731-2): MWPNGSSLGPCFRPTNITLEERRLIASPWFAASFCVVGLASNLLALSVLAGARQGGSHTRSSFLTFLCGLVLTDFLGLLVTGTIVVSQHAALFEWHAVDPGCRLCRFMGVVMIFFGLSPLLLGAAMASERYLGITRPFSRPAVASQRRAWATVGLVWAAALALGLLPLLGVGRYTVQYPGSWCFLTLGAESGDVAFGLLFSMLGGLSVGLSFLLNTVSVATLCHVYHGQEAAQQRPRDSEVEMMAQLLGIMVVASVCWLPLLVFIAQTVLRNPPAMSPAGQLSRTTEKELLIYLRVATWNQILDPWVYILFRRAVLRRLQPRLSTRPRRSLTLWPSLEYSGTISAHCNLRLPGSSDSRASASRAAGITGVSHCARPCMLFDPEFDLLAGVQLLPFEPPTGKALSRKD

Consider `COc1ccc(-c2cccc(Oc3ccc(C(=O)N4CCC4)cc3S(=O)(=O)NC(=O)NC(C)(C)C)c2)cc1` [NTP17], for which the remaining activity at 1 µM in assay [1] turned out to be 83.1 ± 4.85%; in assay [2] (antagonist 1 μM), 51.1 ± 1.13%. The remaining activity at 10 µM in assay [1] was found to be 59.5 ± 4.07%; in assay [2], 13.3 ± 5.91%.
Regarding `COc1ccc(-c2cccc(Oc3ccc(-c4cn[nH]c4)cc3S(=O)(=O)NC(=O)NC(C)(C)C)c2)cc1` [NTP18], the remaining activity at 1 µM was found to be 93.4 ± 6.17% in assay [1] and 45 ± 4.34% in assay [2] (antagonist 1 μM). In addition, the results for the remaining activity at 10 µM in assay [1] and in assay [2] were 73.6 ± 2.98% and 22.6 ± 2.28%, respectively.
As to `COc1ccc(-c2cccc(Oc3ccc(-c4c(C)noc4C)cc3S(=O)(=O)NC(=O)NC(C)(C)C)c2)cc1` [NTP19], the remaining activity at 1 µM in assay [1] was 97.6 ± 8.6%; in assay [2] (antagonist 1 μM) it was 77.7 ± 3.24%. Further, the remaining activity at 10 µM amounted to 99.4 ± 16% in assay [1] and 64.5 ± 4.65% in assay [2].
Take `COc1ccc(-c2cccc(Oc3ccc(-c4ccoc4)cc3S(=O)(=O)NC(=O)NC(C)(C)C)c2)cc1` [NTP20]: the remaining activity at 1 µM in assay [1] amounted to 72.4 ± 5.97%; in assay [2] (antagonist 1 μM), 42.5 ± 2.32%. The remaining activity at 10 µM is 55.7 ± 5.84% in assay [1] and 18.5 ± 3.53% in assay [2].
In the case of `COc1ccc(-c2cccc(Oc3ccc(-c4ccco4)cc3S(=O)(=O)NC(=O)NC(C)(C)C)c2)cc1` [NTP21], the remaining activity at 1 µM in assay [1] is 78.3 ± 8.28%; in assay [2] (antagonist 1 μM), 51 ± 1.62%. Besides, the figures for the remaining activity at 10 µM in assay [1] and in assay [2] were 66.4 ± 4.95% and 32.2 ± 2.89%, respectively.
For the compound `COc1ccc(-c2cccc(Oc3ccc(C(=O)N4CCOCC4)cc3S(=O)(=O)NC(=O)NC(C)(C)C)c2)cc1` [NTP22], the results for the remaining activity at 1 µM in assay [1] and in assay [2] (antagonist 1 μM) were 101 ± 7.28% and 85.1 ± 4.38%, respectively. The remaining activity at 10 µM in assay [1] amounted to 87.6 ± 11.3%; in assay [2], 50.1 ± 4.06%.
On to `COc1ccc(-c2cccc(Oc3ccc(C(=O)N4CC(O)C4)cc3S(=O)(=O)NC(=O)NC(C)(C)C)c2)cc1` [NTP23, N-(tert-butylcarbamoyl)-5-(3-hydroxyazetidine-1-carbonyl)-2-((4′-methoxy-[1,1′-biphenyl]-3-yl)oxy)benzenesulfonamide], for which the remaining activity at 1 µM in assay [1] is 64.2 ± 2.89%; in assay [2] (antagonist 1 μM) it was 48.4 ± 2.75%. Further, the remaining activity at 10 µM is 49.9 ± 7.61% in assay [1] and 20.4 ± 1.94% in assay [2].
Consider `COc1ccc(-c2cccc(Oc3ccc(C(=O)Nc4ncco4)cc3S(=O)(=O)NC(=O)NC(C)(C)C)c2)cc1` [NTP24], for which the results for the remaining activity at 1 µM in assay [1] and in assay [2] (antagonist 1 μM) were 96.8 ± 3.94% and 87.7 ± 8.18%, respectively. Moreover, the results for the remaining activity at 10 µM in assay [1] and in assay [2] were 107 ± 6.48% and 37.9 ± 2.61%, respectively.
On to `COc1ccc(-c2cccc(Oc3ccc(C(=O)Nc4ccccc4)cc3S(=O)(=O)NC(=O)NC(C)(C)C)c2)cc1` [NTP25], for which the remaining activity at 1 µM in assay [1] is 80 ± 7.15%; in assay [2] (antagonist 1 μM) it was 61.6 ± 1.93%. Further, the remaining activity at 10 µM amounted to 65.5 ± 6.32% in assay [1] and 14.8 ± 2.03% in assay [2].
As for `COc1ccc(-c2cccc(Oc3ccc(S(C)(=O)=O)cc3S(=O)(=O)NC(=O)NC(C)(C)C)c2)cc1` [NTP27, N-(tert-butylcarbamoyl)-2-((4′-methoxy-[1,1′-biphenyl]-3-yl)oxy)-5-(methylsulfonyl)benzenesulfonamide], in assay [1], the remaining activity at 1 µM came out at 81.1 ± 10.2% and the remaining activity at 10 µM worked out at 68.4 ± 4.56%. For the same compound, in assay [2] (antagonist 1 μM), the “activity class in HEK.TPβ cells” value is “ACTIVE” and the remaining activity at 1 µM is 36.4 ± 3.8%. Besides, in assay [2], the remaining activity at 10 µM turned out to be 16.3 ± 2.39%.
Regarding `CCNC(=O)c1ccc(Oc2cccc(-c3ccc(OC)cc3)c2)c(S(=O)(=O)NC(=O)NC(C)(C)C)c1` [NTP28], the remaining activity at 1 µM in assay [1] is 108 ± 7.64%; in assay [2] (antagonist 1 μM) it was 110 ± 1.85%. Also, the figures for the remaining activity at 10 µM in assay [1] and in assay [2] were 89.5 ± 10.3% and 62.3 ± 4.3%, respectively.
The like results for `COc1ccc(-c2cccc(Oc3ccc(-c4ccncc4)cc3S(=O)(=O)NC(=O)NC(C)(C)C)c2)cc1` [NTP29] were, in that order, 113 ± 8.15%, 100 ± 4.69%, 105 ± 8.03% and 94.6 ± 3.58%.
